Counter-ions that a name gives are not always drawn.
Assays:
Type in all cases: in vivo, human
[1] = system: patients with visceral moderate to intense pain after non-oncologic abdominal hysterectomy; assay: Example 3: phase III trial, oral ibuprofen arginate/tramadol HCl (400/37.5), pain after hysterectomy (VAS, rescue medication, adverse effects); settings: tramadol HCl 50 mg; for Total rescued patients (number) / Total rescued patients (%): 8 doses every 6 hours, 48 hours; for Total rescued patients (number): N = 91/94/98, ibuprofen arginate 400 mg; for Total rescued patients (%) / Rescued patients at 24 h (%) / Rescued patients at 24 h (number) / Average time until rescue: ibuprofen arginate 400 mg; for Rescued patients at 24 h (%) / Rescued patients at 24 h (number): first 24 h of the study
Description: (§1) A phase III, multicentre, randomized, double-blind, placebo-controlled, study was performed to assess the compared efficacy and safety of the combination of ibuprofen arginate/tramadol HCl (400 mg ibuprofen/37.5 mg tramadol HCl) administered by the oral route, compared to oral tramadol (50 mg), oral ibuprofen arginate (400 mg ibuprofen) and placebo for treating adult patients (aged 18 or more) suffering from visceral moderate to intense pain after non-oncologic abdominal hysterectomy.
(§2) Pain intensity was assessed using the Visual Analogue Scale (VAS).
The patients selected for the study were adults suffering from moderate to severe pain (VAS 0-100≥40 mm) after total or partial abdominal hysterectomy for benign, non-oncologic disease, which required hospitalization during at least 48 hours.
The patients were divided in four groups, receiving the following medication: • Group 1: ibuprofen arginate/tramadol HCl 400 mg/37.5 mg (91 patients) • Group 2: ibuprofen arginate 400 mg (94 patients) • Group 3: tramadol HCl 50 mg (98 patients) • Group 4: placebo (93 patients)
(§3) The amount of ibuprofen arginate (400 mg) is expressed as the amount of ibuprofen in acidic form.
The combination of ibuprofen arginate/tramadol HCl administered to the patients of Group 1 was in the form of granulate for oral administration (as described in Example 4 below). Each dosage comprised 340 mg of L-arginine.
Patients of Group 2 received the commercial medicine Espidifen® 400 mg, each dose comprising 400 mg of ibuprofen, as 770 mg of ibuprofen arginate.
Patients of Group 3 received the commercial medicine Adolonta® 100 mg/ml oral solution, and a dose of 50 mg of tramadol HCl was administered.
After the surgery, the pain intensity of each patient was evaluated according to the VAS test until reaching the value ≥40 mm. At that moment, each patient was recruited and assigned to one of the four groups in a randomized way and the corresponding medication was administered. A new VAS test was performed after the administration of the first dose of the medication, which was taken as the basal value. Subsequently, 7 more doses of the assigned medication were administered, with an interval of 6 hours between doses, so a total of 8 doses were administered to each patient.
After the administration of the first dosage of each medication, the evolution of the patients was followed until 48 hours after the first dosage, by assessing the change in pain intensity.
After 30 minutes from the first dosage, patients were allowed to request a rescue medication, if needed. Rescue medication was 1 g paracetamol given by the oral route. If a second rescue medication was necessary, a capsule of 575 mg metamizole was administered.
Pain intensity was assessed for each patient at the following time points: 0 (basal), 1, 2, 4, 6, 8, 10, 12, 18, 24, 30, 36, 42 and 48 hours after the administration of the first dosage of the medication. For each of the four groups, the average VAS value was calculated at each time point.

[2] = system: patients with moderate to intense somatic pain after dental surgery; assay: Example 2: phase III trial, oral ibuprofen arginate/tramadol (400/37.5), pain after dental surgery (VAS, rescue medication, safety); settings: 4 doses every 6 hours, 24 hours follow-up, tramadol HCl 50 mg; for Number of rescued patients: N = 95/97/98, ibuprofen arginate 400 mg; for % of rescued patients: ibuprofen arginate 400 mg
Description: as §1, with “placebo-controlled” for “placebo-controlled,”, “from” for “from visceral”, “intense somatic” for “intense”, “dental surgery.” for “non-oncologic abdominal hysterectomy.”
as §2
The patients selected for the study were adults suffering from moderate to severe pain (VAS 0-100≥45 mm) after surgical extraction of at least two third molars, if only two third molars were extracted, they should be ipsilateral and at least one of them impacted, involving bone removal.
The patients were divided in four groups, receiving the following medication: • Group 1: ibuprofen arginate/tramadol HCl 400 mg/37.5 mg (95 patients) • Group 2: ibuprofen arginate 400 mg (97 patients) • Group 3: tramadol HCl 50 mg (98 patients) • Group 4: placebo (93 patients)
as §3
The combination of ibuprofen arginate/tramadol HCl administered to the patients of Group 1 was in the form of a granulate for oral administration (as described in Example 4). Each dosage comprised 340 mg of L-arginine.
The ibuprofen arginate 400 mg administered to the patients of Group 2 corresponded to the commercial medicine Espidifen® 400 mg, each dose comprising 400 mg of ibuprofen, given as 770 mg of ibuprofen arginate.
The 50 mg dose of tramadol HCl 50 mg of Group 3 was administered using the commercial medicine Adolonta® 100 mg/ml oral solution.
After the dental surgery, the pain intensity of each patient was evaluated according to the VAS test until reaching the value ≥45 mm. At that moment, the patient was assigned to one of the four groups in a randomized way and the corresponding medication was administered. A new VAS test was performed after the administration of the first dose of the medication, which was taken as the basal value. 4 doses of each medication were administered, with an interval of 6 hours between doses.
After the administration of each medication, the evolution of patients was followed until 24 hours after the first dosage, by assessing the change in pain intensity.
Patients were allowed to ask for rescue medication during that period, starting 30 minutes after the administration of the first dosage. […]
Pain intensity was assessed for each patient at the following time points: 0 (basal), 1, 2, 3, 4, 5, 6, 8, 12 and 24 hours after the administration of the medication. For each of the four groups, the average VAS value was calculated.

[3] = system: patients with moderate to intense pain after dental surgery; assay: Example 1: phase III pilot trial, intravenous ibuprofen arginate combined with tramadol, pain after dental surgery (VAS, rescue medication, adverse effects); settings: for VAS (average value): single iv infusion
Description: A phase III, multicentre, randomized, double-blind, placebo-controlled, pilot study was performed to assess the compared efficacy and safety of intravenous ibuprofen arginate (400 mg) combined with two different doses of tramadol hydrochloride (37.5 and 75 mg) and of intravenous tramadol 100 mg in patients suffering from moderate to intense pain after dental surgery.
as §2
The patients were divided in four groups, receiving the following medication: • Group 1: ibuprofen arginate/tramadol HCl 400 mg/37.5 mg (16 patients) • Group 2: ibuprofen arginate/tramadol HCl 400 mg/75 mg (18 patients) • Group 3: tramadol HCl 100 mg (18 patients) • Group 4: placebo (saline solution) (17 patients)
The amount of ibuprofen arginate (400 mg) is expressed as the amount of ibuprofen in acidic form. The amount of L-arginine in each composition in groups 1 and 2 was 356 mg, which corresponds to a molar ratio ibuprofen:arginine 1:1.054.
The compositions of groups 1 to 3 were aqueous solutions of the drugs prepared with water for injection. Other excipients included in the compositions were sodium chloride, used as tonicity agent, to reach an osmolality of 310-360 mOsm/Kg, and hydrochloric acid and sodium hydroxide to adjust the pH of the solution to a value in the range 6.8-7.8. The volume of the composition in all groups was 100 ml, which was infused intravenously during 30 minutes, in a single administration. The preparation of the composition used for Group 1 is analogous as disclosed in Example 5. The preparation of the composition used for Group 2 was equivalent, but using 75 mg of tramadol HCl instead of 37.5 mg.
Thus, after the dental surgery, the pain intensity of each patient was evaluated according to the VAS test until reaching the value ≥55 mm. At that moment, the patient was assigned to one of the four groups in a randomized way and the corresponding medication was administered not later than 15 minutes after randomization and not later than 25 minutes after VAS test. A new VAS test was performed at the beginning of the infusion, which was taken as the basal value.
After the administration of each medication, the evolution of patients was followed during 4 hours, by assessing the change in pain intensity.
Patients were allowed to ask for rescue medication during that period, starting 30 minutes after the administration of each treatment. Rescue medication was 1 g paracetamol given by the oral route. If a second rescue medication was necessary, a capsule of 575 mg metamizole was administered. If rescue medication was administered before 4 hours after the administration of the study medication, the patient left the study (but remained still included for assessing safety parameters and was under monitoring for further 4 hours).
Pain intensity was assessed for each patient at the following time points: 0 (basal), 15, 30, 45, 60, 75, 90, 105, 120, 150, 180, 210, and 240 minutes after the administration of the medication. For each of the four groups, the average VAS value was calculated.

SMILES: CC(C)Cc1ccc(C(C)C(=O)O)cc1 (racemic) [ibuprofen arginate, (RS)-2-(4-(2-methylpropyl)phenyl)propanoic acid]
- Total rescued patients (number) [1]: 23
- Total rescued patients (%) [1]: 24.5%
- Rescued patients at 24 h (%) [1]: 22.3%
- Rescued patients at 24 h (number) [1]: 21
- Average time until rescue [1]: 8.43 h
- Number of rescued patients [2]: 6
- % of rescued patients [2]: 6.2%

SMILES: COc1cccc([C@]2(O)CCCC[C@H]2CN(C)C)c1 (racemic) [tramadol HCl, (±)-cis-2-[(dimethylamino)methyl]-1-(3-methoxyphenyl) cyclohexanol]
- Total rescued patients (number) [1]: 31
- Total rescued patients (%) [1]: 31.6%
- Rescued patients at 24 h (%) [1]: 28.6%
- Rescued patients at 24 h (number) [1]: 28
- Average time until rescue [1]: 8.97 h
- number of adverse effects reported relative to Group 1 (ibuprofen/tramadol) [1]: twice
- Number of rescued patients ([3]; iv, 4 hours follow-up, N = 16/18/18, tramadol HCl alone 100 mg): 9
- % of rescued patients ([3]; iv, 4 hours follow-up, tramadol HCl alone 100 mg): 50.0%
- Number of patients reporting AE ([3]; iv, N = 16/18/18, tramadol HCl alone 100 mg): 5
- % of patients reporting AE ([3]; iv, tramadol HCl alone 100 mg): 27.8%
- Average time until rescue ([3]; iv, tramadol HCl alone 100 mg): 70 min
- Number of AE ([3]; iv, tramadol HCl alone 100 mg): 9
- VAS (average value) ([3]; 15 min after administration, tramadol HCl alone 100 mg): 48.55 mm
- VAS (average value) ([3]; 30 min, tramadol HCl alone 100 mg): 45.28 mm
- VAS (average value) ([3]; 45 min, tramadol HCl alone 100 mg): 47.11 mm
- VAS (average value) ([3]; 60 min, tramadol HCl alone 100 mg): 51.67 mm
- VAS (average value) ([3]; 75 min, tramadol HCl alone 100 mg): 54.72 mm
- VAS (average value) ([3]; 90 min, tramadol HCl alone 100 mg): 54.44 mm
- VAS (average value) ([3]; 105 min, tramadol HCl alone 100 mg): 53.67 mm
- VAS (average value) ([3]; 120 min, tramadol HCl alone 100 mg): 51.55 mm
- VAS (average value) ([3]; 150 min, tramadol HCl alone 100 mg): 49.39 mm
- VAS (average value) ([3]; 180 min, tramadol HCl alone 100 mg): 47.94 mm
- VAS (average value) ([3]; 210 min, tramadol HCl alone 100 mg): 46.72 mm
- VAS (average value) ([3]; 240 min, tramadol HCl alone 100 mg): 44.50 mm
- VAS (average value) ([3]; time 0 min (basal), tramadol HCl alone 100 mg): 72.83 mm
- Number of rescued patients [2]: 38
- % of rescued patients [2]: 38.8%

Source: US12514833B2, “Combination of ibuprofen and tramadol for relieving pain” (FARMALÍDER, S.A., priority 2019, dated 2026)
